Measured values taken from patent publication US5750496A, “Method of controlling cryptosporidium infectons using protease inhibitors” (priority 1996, dated 1998).
Starred links: 1 amine or outer side, 2 acyl side, 3 side chain; linkers in the order of their positions; H or OH if unused. Residues, ends and D or L forms follow the SMILES beside them. *: point of attachment. MeOSuc = COC(=O)CCC(=O)*; CO = O=C([*:1])[*:2]; CH2Cl = ClC*

B1: soybean trypsin inhibitor (protein, UniProt P01070 25-205, looked up)
Trypsin inhibitor A: DFVLDNEGNPLENGGTYYILSDITAFGGIRAAPTGNERCPLTVVQSRNELDKGIGTIISSPYRIRFIAEGHPLSLKFDSFAVIMLCVGIPTEWSVVEDLPEGPAVKIGENKDAMDGWFRLERVSDDEFNNYKLVFCPQQAEDDKCGDIGISIDHDDGTRRLVVSKNKPLVVQFQKLDKESL

What was measured:
[1] = system: C. parvum; experiment: Anticryptosporidial effect in BFTE cell culture inoculated with C. parvum oocysts, parasites enumerated 24 hours post-inoculation; type: cell-based, Cryptosporidium parvum (bovine isolate); details: for Control Percent Survival: 24 hours post-inoculation; for Lowest concentrations with significant reduction (P<0.001) in parasite numbers: concentrations as low as, P<0.001 vs infection control; for Intact (i.e. unexcysted) oocysts in treated BFTE cell monolayers during microscopic enumeration: predominantly associated with concentrations exceeding 100 μg/ml
Description: C. parvum (bovine isolate) oocysts used in this study were originally donated by the U.S. Department of Agriculture, Ames, Iowa. The oocysts were isolated from calf manure, preserved in 2.5% potassium dichromate, and used within 3 months of purification. Oocysts were decontaminated by suspension in 20% (vol/vol) 1.05% sodium hypochlorite on ice for 20 minutes. Oocysts were then washed three times in Hanks' balanced salt solution ("HIBSS") and once in RPMI 1640 (available from Sigma, St. Louis, Mo.). Release of sporozoites was achieved by incubating oocysts in an excystation solution consisting of 0.25% (wt/vol) trypsin (available from Sigma, St. Louis, Mo.) and 0.75% (wt/vol) taurodeoxycholic acid (available from Sigma) in HBSS. The resulting suspension was incubated at 37° C. for 45 minutes and microscopically observed to confirm sporozoite release. Sporozoites were completely separated from intact oocysts and oocyst walls by passage through sterile polycarbonate filters (3 micron pore size, available from Millipore Corp., Bedford, Mass.) twice prior to inoculation of bovine fallopian tube epithelial ("BFTE") cell monolayers.
Primary BFTE cell cultures were prepared from bovine fallopian tubes (FT). Fat was trimmed from the serosal surfaces, mucus was gently squeezed from the lumens, and FT were decontaminated by being submerged in 70% ethanol for 30 seconds. The FT were then transferred to sterile culture petri dishes containing HBSS and washed twice. The BFTE cells were harvested either by flushing the FT with HBSS, using a 10 ml syringe equipped with a mouse feeding needle, or by opening the FT lengthwise with scissors and scraping the mucosal surfaces. The BFTE cells were subsequently washed in HBSS by centrifugation at 200×g (force of gravity) for 10 minutes, planted in 75-cm^2 flasks containing RPMI 1640 and cultured in a 5% CO2 incubator at 37° C. for 72 to 120 hours. When the cell lines reached confluency, they were trypsinized, split, and planted onto cover slips positioned on the bottoms of individual wells in 24-well tissue culture plates. When cells reached 80% confluency, they were inoculated with either 10^5 oocysts or 4×10^5 sporozoites per well. Plates were then maintained at 37° C. in a candle jar environment (17% O2, 3% CO2, 80% N2). Growth medium was changed in each well every 72 hours. In wells inoculated with oocysts, the medium was first changed at 24 hours to remove any unexcysted oocysts.
Coverslips were removed at 5, 24, 48, 72, 96, and 120 hours from the inoculated wells containing monolayers of BFTE cells. The coverslips were washed in RPMI 1640, fixed in 100% methanol for 10 minutes, stained with Giemsa stain for 1 hour, and washed three times with double-distilled water (ddH2 O). Coverslips were then mounted on glass slides and examined under oil immersion (1000X), using bright-field microscopy. Parasites were enumerated by counting all developmental stages of C. parvum present in a single scan (67 fields) through the center of each coverslip. The data were statistically compared for significance, using analysis of variance (Fischer's protected least-significant-difference test using a "[…]" statistical analysis application developed by Abacus Concepts, Inc., Berkeley, Calif.).
The anticryptosporidial potential of the protease inhibitor AAT was evaluated in a BFTE cell culture system inoculated with C. parvum oocysts in accordance with the methods detailed in Example I. […] At 24 hours post-inoculation, the BFTE cells were rinsed with RPMI medium, fixed in methanol, and stained with Giemsa. Parasites were enumerated in cell monolayers by brightfield microscopy. Results, as set out in Table 1, represent the mean number of parasites counted per treatment group expressed as a percent, plus or minus the standard deviation, of the mean number of parasites counted in the infection control group.

[2] = system: BFTE cells; experiment: Cytotoxicity for BFTE cells at the concentrations evaluated; type: cell-based, bovine; details: at the concentrations evaluated (5-1000 μg/ml)
Description: Primary BFTE cell cultures were prepared from bovine fallopian tubes (FT). Fat was trimmed from the serosal surfaces, mucus was gently squeezed from the lumens, and FT were decontaminated by being submerged in 70% ethanol for 30 seconds. The FT were then transferred to sterile culture petri dishes containing HBSS and washed twice. The BFTE cells were harvested either by flushing the FT with HBSS, using a 10 ml syringe equipped with a mouse feeding needle, or by opening the FT lengthwise with scissors and scraping the mucosal surfaces. The BFTE cells were subsequently washed in HBSS by centrifugation at 200×g (force of gravity) for 10 minutes, planted in 75-cm^2 flasks containing RPMI 1640 and cultured in a 5% CO2 incubator at 37° C. for 72 to 120 hours. […]
The anticryptosporidial potential of the protease inhibitor AAT was evaluated in a BFTE cell culture system inoculated with C. parvum oocysts in accordance with the methods detailed in Example I. AAT concentrations of 5, 10, 50 100, and 500 micrograms per milliliter ("μg/ml") in RPMI medium were mixed with C. parvum oocysts and used to inoculate BFTE cell monolayers. […] Results, as set out in Table 1, represent the mean number of parasites counted per treatment group expressed as a percent, plus or minus the standard deviation, of the mean number of parasites counted in the infection control group.

[3] = 5 μg/ml, mean parasites as percent of infection control +/- SD
[4] = 10 μg/ml, mean parasites as percent of infection control +/- SD
[5] = 50 μg/ml, mean parasites as percent of infection control +/- SD
[6] = 100 μg/ml, mean parasites as percent of infection control +/- SD
[7] = 500 μg/ml, mean parasites as percent of infection control +/- SD
[8] = 1000 μg/ml, mean parasites as percent of infection control +/- SD

Row | Molecule | Control Percent Survival [1, 3] | Control Percent Survival [1, 4] | Control Percent Survival [1, 5] | Control Percent Survival [1, 6] | Control Percent Survival [1, 7] | Control Percent Survival [1, 8] | Lowest concentrations with significant reduction (P<0.001) in parasite numbers [1] [µg/mL] | Intact (i.e. unexcysted) oocysts in treated BFTE cell monolayers during microscopic enumeration [1] | Number of parasites vs infection control (P<0.01) ([1]; 500 μg/ml) | Cytotoxicity for BFTE cells [2] | Control Percent Survival ([1]; 1 mM, percent of infection control +/- SD) | Control Percent Survival ([1]; 2 mM, percent of infection control +/- SD) | Control Percent Survival ([1]; 3 mM, percent of infection control +/- SD) | Number of parasites vs infection control (P<0.001) ([1]; 3 mM, P<0.001) | Number of parasites vs infection control (P<0.01) ([1]; 10 μg/ml and 50 μg/ml) | Number of parasites vs infection control (P<0.01) ([1]; 50 μg/ml and 100 μg/ml)
1 | CC(C)[C@H](NC(=O)[C@H](CCCNC(=N)N)NC(=O)N[C@@H](Cc1ccccc1)C(=O)O)C(=O)N[C@H](C=O)CCCNC(=N)N [ANTIPAIN, antipain] ({Phe-CO}-Arg-Val-Arg-aldehyde) | 67.7 +/- 7.2% | 53.1 +/- 5.8% | 42.1 +/- 6.1% | 20.9 +/- 2.2% | 15.6 +/- 1.4% | 6.6 +/- 1.4% | 5 to 10 | frequently observed |  |  |  |  |  |  |  | 
2 | COC(=O)CCC(=O)N[C@@H](C)C(=O)N[C@@H](C)C(=O)N1CCC[C@H]1C(=O)N[C@H](C(=O)CCl)C(C)C [MAAPVCK, methoxysuccinyl-ala-ala-pro-valine chloromethylketone] (MeOSuc-AAPV-CH2Cl) | 89.1 +/- 5.4% | 64.8 +/- 12.0% | 58.7 +/- 11.2% | 51.9 +/- 4.6% | 43.4 +/- 6.6% |  |  |  | significantly reduced |  |  |  |  |  |  | 
3 | alpha-1-antitrypsin [AAT] | 49.1 +/- 3.8% | 43.9 +/- 4.2% | 42.7 +/- 1.6% | 30.4 +/- 1.9% | 14.7 +/- 6.3% | 1.8 +/- 0.4% | 5 to 10 | frequently observed |  | no evidence of cytotoxicity |  |  |  |  |  | 
4 | O=S(=O)(F)Cc1ccccc1 [PMSF, phenylmethylsulfonyl flouride] |  |  |  |  |  |  |  |  |  |  | 68.9 +/- 5.2% | 55.9 +/- 4.7% | 40.0 +/- 8.3% | significantly reduced |  | 
5 | CC(=O)N[C@@H](CC(C)C)C(=O)N[C@@H](CC(C)C)C(=O)N[C@H](C=O)CCCNC(=N)N [Leupeptin, leupeptin] | 89.1 +/- 5.4% | 64.8 +/- 12.0% | 58.7 +/- 11.2% | 51.9 +/- 4.6% | 43.4 +/- 6.6% |  |  |  |  |  |  |  |  |  | significantly reduced | 
6 | aprotinin | 83.9 +/- 6.6% | 54.2 +/- 6.0% | 36.1 +/- 4.7% | 16.8 +/- 5.1% | 10.9 +/- 4.7% | 9.4 +/- 1.8% | 5 to 10 | frequently observed |  |  |  |  |  |  |  | 
7 | B1 | 89.1 +/- 5.4% | 64.8 +/- 12.0% | 58.7 +/- 11.2% | 51.9 +/- 4.6% | 43.4 +/- 6.6% |  |  |  |  |  |  |  |  |  |  | significantly reduced
